Test results from ChEMBL document CHEMBL1134931, “Aminoalkoxybiphenylnitriles as histamine-3 receptor ligands” (Bioorg Med Chem Lett, 2002).
pKi: −log10 of the molar value.

What was measured:
Histamine H1 receptor [1] = molecular target: T1, Histamine H1 receptor (Homo sapiens, UniProt P35367); experiment: Binding affinity at human cortical Histamine 1 receptor
Histamine H2 receptor [2] = molecular target: T2, Histamine H2 receptor (Homo sapiens, UniProt P25021); experiment: Binding affinity at human cortical Histamine 2 receptor
Histamine H3 receptor [3] = molecular target: T3, Histamine H3 receptor (Homo sapiens, UniProt Q9Y5N1); experiment: Binding affinity at human cloned Histamine 3 receptor
Histamine H3 receptor [4] = molecular target: T4, Histamine H3 receptor (Rattus norvegicus, UniProt Q9QYN8); experiment: Binding affinity at rat cortical Histamine 3 receptor
Histamine H1 receptor [5] = molecular target: T1, Histamine H1 receptor; experiment: Binding affinity of human cortical histamine H1 receptor
Histamine H3 receptor [6] = molecular target: T4, Histamine H3 receptor; experiment: Binding affinity at rat cortical Histamine H3 receptor
Histamine H2 receptor [7] = molecular target: T2, Histamine H2 receptor; experiment: Binding affinity to the human cortical histamine H2 receptor
Histamine H3 receptor [8] = molecular target: T3, Histamine H3 receptor; experiment: Binding affinity at human cloned Histamine H3 receptor

T2 sequence (P25021 whole entry): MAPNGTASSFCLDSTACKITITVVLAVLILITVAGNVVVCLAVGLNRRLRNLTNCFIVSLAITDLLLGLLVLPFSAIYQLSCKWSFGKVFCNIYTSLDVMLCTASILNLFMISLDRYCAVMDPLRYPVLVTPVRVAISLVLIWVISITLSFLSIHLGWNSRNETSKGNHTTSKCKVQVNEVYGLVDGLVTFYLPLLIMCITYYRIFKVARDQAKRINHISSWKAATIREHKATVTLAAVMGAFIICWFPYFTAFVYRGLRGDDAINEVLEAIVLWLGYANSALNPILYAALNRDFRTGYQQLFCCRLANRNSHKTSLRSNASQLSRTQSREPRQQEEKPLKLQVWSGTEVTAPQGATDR
T4 sequence (Q9QYN8 whole entry): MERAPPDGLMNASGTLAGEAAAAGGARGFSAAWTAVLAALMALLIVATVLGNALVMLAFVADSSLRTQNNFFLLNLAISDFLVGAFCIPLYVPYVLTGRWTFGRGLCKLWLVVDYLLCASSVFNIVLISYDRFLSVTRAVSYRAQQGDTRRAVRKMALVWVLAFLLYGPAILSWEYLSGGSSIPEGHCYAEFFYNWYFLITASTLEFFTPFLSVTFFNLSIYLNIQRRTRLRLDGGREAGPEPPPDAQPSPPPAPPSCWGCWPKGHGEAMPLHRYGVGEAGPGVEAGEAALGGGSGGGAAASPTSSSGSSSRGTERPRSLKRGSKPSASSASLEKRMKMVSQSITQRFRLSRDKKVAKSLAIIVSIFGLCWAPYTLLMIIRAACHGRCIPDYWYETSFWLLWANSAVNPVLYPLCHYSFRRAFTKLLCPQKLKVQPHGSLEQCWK
T1 sequence (P35367 whole entry): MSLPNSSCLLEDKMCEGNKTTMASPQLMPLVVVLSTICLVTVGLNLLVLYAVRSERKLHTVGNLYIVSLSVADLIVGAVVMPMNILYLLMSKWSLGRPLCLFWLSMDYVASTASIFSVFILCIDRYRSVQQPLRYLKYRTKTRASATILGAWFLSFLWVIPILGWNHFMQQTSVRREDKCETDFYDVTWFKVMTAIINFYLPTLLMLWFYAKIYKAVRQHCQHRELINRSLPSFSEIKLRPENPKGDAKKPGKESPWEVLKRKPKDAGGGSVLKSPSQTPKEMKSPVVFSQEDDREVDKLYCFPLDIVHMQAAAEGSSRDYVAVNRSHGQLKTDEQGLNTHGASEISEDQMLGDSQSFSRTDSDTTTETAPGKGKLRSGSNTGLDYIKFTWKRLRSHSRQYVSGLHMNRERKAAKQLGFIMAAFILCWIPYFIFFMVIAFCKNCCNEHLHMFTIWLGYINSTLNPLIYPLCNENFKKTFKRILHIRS
T3 sequence (Q9Y5N1 whole entry): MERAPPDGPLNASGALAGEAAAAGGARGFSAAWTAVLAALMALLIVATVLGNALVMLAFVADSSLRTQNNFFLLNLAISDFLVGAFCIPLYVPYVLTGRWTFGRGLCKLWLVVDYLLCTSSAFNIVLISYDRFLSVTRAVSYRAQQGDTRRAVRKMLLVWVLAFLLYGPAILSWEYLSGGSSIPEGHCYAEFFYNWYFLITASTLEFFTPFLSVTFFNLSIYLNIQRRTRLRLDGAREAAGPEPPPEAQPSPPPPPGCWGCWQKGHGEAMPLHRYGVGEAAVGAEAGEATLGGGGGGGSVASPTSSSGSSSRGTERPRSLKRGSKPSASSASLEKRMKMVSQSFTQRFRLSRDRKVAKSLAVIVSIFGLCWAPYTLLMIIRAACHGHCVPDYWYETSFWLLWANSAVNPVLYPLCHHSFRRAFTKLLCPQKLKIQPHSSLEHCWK

| SMILES | pKi (Histamine H1 receptor [1]) | pKi (Histamine H2 receptor [2]) | pKi (Histamine H3 receptor [3]) | pKi (Histamine H3 receptor [4]) | pKi (Histamine H1 receptor [5]) | pKi (Histamine H3 receptor [6]) | pKi (Histamine H2 receptor [7]) | pKi (Histamine H3 receptor [8]) |
| --- | --- | --- | --- | --- | --- | --- | --- | --- |
| N#Cc1ccc(-c2ccc(OCCCN3CCCC3)cc2)cc1 | 5.30 | 4.17 | 8.14 | 7.38 |  |  |  |  |
| N#Cc1ccc(-c2ccc(OCCCN3CCCC(O)C3)cc2)cc1 (stereo not given) |  |  |  |  | 5.11 | 7.09 | 4.89 | 7.52 |
| CCOC(=O)N1CCN(CCCOc2ccc(-c3cccc(C#N)c3)cc2)CC1 | 6.42 | 4.62 |  |  |  |  |  |  |
| CCOC(=O)N1CCN(CCCOc2ccc(-c3ccc(Cl)cc3)cc2)CC1 | 6.45 | 5.25 |  | 6.72 |  |  |  |  |
| N#Cc1ccc(-c2ccc(OCCCN3CC[C@@H](O)C3)cc2)cc1 | 5.35 | 4.77 | 8.08 |  |  |  |  |  |
| C[C@@]1(O)CCN(CCCOc2ccc(-c3ccc(C#N)cc3)cc2)C1 |  |  |  |  | 5.41 | 7.81 | 4.82 | 8.39 |
| CC1CCCC(C)N1CCCOc1ccc(-c2ccc(C#N)cc2)cc1 (stereo not given) |  |  |  |  | 5.40 | 7.79 | 4.62 | 8.67 |
| N#Cc1ccc(-c2ccc(OCCCN3CC[C@H](O)C3)cc2)cc1 | 5.25 | 4.72 | 7.71 | 6.90 |  |  |  |  |
| N#Cc1ccc(-c2ccc(OCCCN3CCC(N)CC3)cc2)cc1 | 5.45 | 4.47 | 6.70 | 6.89 |  |  |  |  |
| N#Cc1ccc(-c2ccc(OCCCN3CCCNCC3)cc2)cc1 |  |  |  |  | 5.41 | 7.87 | 5.11 | 8.08 |
| CCOC(=O)N1CCN(CCCOc2ccc(-c3ccc([N+](=O)[O-])cc3)cc2)CC1 | 7.09 | 5.08 |  | 7.01 |  |  |  |  |
| CCOC(=O)N1CCN(CCCOc2ccc(-c3ccccc3[N+](=O)[O-])cc2)CC1 | 6.79 | 5.12 |  | 6.21 |  |  |  |  |
| N#Cc1ccc(-c2ccc(OCCCN3CC[C@@H](N)C3)cc2)cc1 | 4.86 | 5.13 | 8.21 | 7.20 |  |  |  |  |
| N#Cc1ccc(-c2ccc(OCCCN3CCNCC3)cc2)cc1 |  |  |  |  | 5.05 | 6.23 | 4.64 | 6.93 |

Continued by rising pKi (Histamine H1 receptor [5]), values first:

| pKi (Histamine H1 receptor [1]) | pKi (Histamine H2 receptor [2]) | pKi (Histamine H3 receptor [3]) | pKi (Histamine H3 receptor [4]) | pKi (Histamine H1 receptor [5]) | pKi (Histamine H3 receptor [6]) | pKi (Histamine H2 receptor [7]) | pKi (Histamine H3 receptor [8]) | SMILES |
| --- | --- | --- | --- | --- | --- | --- | --- | --- |
|  |  |  |  | 5.43 |  | 5.00 | 8.07 | CN[C@@H]1CCN(CCCOc2ccc(-c3ccc(C#N)cc3)cc2)C1 |
|  |  |  |  | 5.43 |  | 4.24 |  | CCOC(=O)N1CCN(CCCOc2ccc(-c3ccncc3)cc2)CC1 |
|  |  |  |  | 5.46 | 7.64 | 4.73 | 8.15 | CC1CCCCN1CCCOc1ccc(-c2ccc(C#N)cc2)cc1 (stereo not given) |
|  |  |  |  | 5.49 | 7.60 | 4.42 | 7.44 | N#Cc1ccc(-c2ccc(OCCCN3CCOCC3)cc2)cc1 |
|  |  |  |  | 5.54 | 7.18 | 4.91 | 7.82 | N#Cc1ccc(-c2ccc(OCCCN3CC4CNCC4C3)cc2)cc1 (stereo not given) |
|  |  |  |  | 5.72 | 7.87 | 5.00 | 8.56 | CN(C)[C@@H]1CCN(CCCOc2ccc(-c3ccc(C#N)cc3)cc2)C1 |
|  |  |  |  | 5.83 | 6.06 | 4.16 |  | CCOC(=O)N1CCN(CCCOc2ccc(-c3c[nH]cn3)cc2)CC1 |
|  |  |  |  | 6.12 | 6.68 | 4.01 |  | CCOC(=O)N1CCN(CCCOc2ccc(-c3ccsc3)cc2)CC1 |
|  |  |  |  | 6.24 | 7.50 | 5.00 | 6.91 | N#Cc1ccc(-c2ccc(OCCCN3CCC(O)CC3)cc2)cc1 |
|  |  |  |  | 6.25 | 8.19 | 5.04 | 9.17 | C[C@@H]1CC[C@@H](C)N1CCCOc1ccc(-c2ccc(C#N)cc2)cc1 |
|  |  |  |  | 6.30 | 7.25 | 4.89 | 6.00 | CCOC(=O)N1CCN(CCCOc2ccc(-c3cc[nH]c3)cc2)CC1 |
|  |  |  |  | 6.35 | 6.64 | 4.48 |  | CCOC(=O)N1CCN(CCCOc2ccc(-c3cccs3)cc2)CC1 |
|  |  |  |  | 6.36 | 6.62 | 5.44 |  | CCOC(=O)N1CCN(CCCOc2ccc(-c3ccc(OC(F)(F)F)cc3)cc2)CC1 |
|  |  |  |  | 6.37 | 8.01 | 5.04 | 7.86 | CC1CCN(CCCOc2ccc(-c3ccc(C#N)cc3)cc2)CC1 |
|  |  |  |  | 6.45 |  | 4.00 |  | CCOC(=O)N1CCN(CCCOc2ccc(-c3ccc(OC)cc3)cc2)CC1 |
|  |  |  |  | 6.56 | 7.58 | 4.93 | 8.77 | CC1CCCN(CCCOc2ccc(-c3ccc(C#N)cc3)cc2)C1 (stereo not given) |
|  |  |  |  | 6.74 | 6.95 | 5.78 |  | CCOC(=O)N1CCN(CCCOc2ccc(-c3ccc(Br)cc3)cc2)CC1 |
|  |  |  |  | 6.80 | 7.55 | 4.54 | 6.00 | CCOC(=O)N1CCN(CCCOc2ccc(-c3ccc(C#N)cc3)cc2)CC1 |
|  |  |  |  | 7.56 | 6.99 | 5.40 |  | CCOC(=O)N1CCN(CCCOc2ccc(-c3ccc(C#N)cc3C)cc2)CC1 |
